# According to US8076356B2, “Triazolopyridinylsulfanyl derivatives as P38 map kinase inhibitors” (Pfizer Inc., priority 2004, dated 2011):
# Test system: TNFα release from human peripheral blood mononuclear cells
# Test: TNFα screen
# Assay type: cell-based
# Details: LPS-stimulated human peripheral blood mononuclear cells, 18 hours incubation, TNFα in supernatant by ELISA; read-out: TNF IC50
# Description: Venous blood is collected from healthy volunteers and the mononuclear cells purified by centrifugation through Histopaque (Ficoll) cushions. TNFα production from these cells is stimulated by addition of lipopolysaccharide. After 18 hours incubation in the presence of LPS, the cell supernatant is removed and the concentration of TNFα in the supernatant determined by ELISA.
row,SMILES,IC50 [nM]
1,Cc1ccc(-n2nc(C(C)(C)C)cc2NC(=O)NCc2ccccc2Sc2ccc3nnc(-c4ccccc4OCc4ccccc4)n3c2)cc1 [Example 116],3.2
2,CNC(=O)c1ccc(-n2nc(C(C)(C)C)cc2NC(=O)NCc2ccccc2Sc2ccc3nnc(C(C)C)n3c2)cc1 [Example 118],15.7
3,Cc1cc(OCc2ccccc2)cc(-n2nc(C(C)(C)C)cc2NC(=O)NCc2ccccc2Sc2ccc3nnc(C(C)C)n3c2)c1 [Example 124],4.6
4,CSC(C)(C)c1cc(NC(=O)NCc2ccccc2Sc2ccc3nnc(C(C)C)n3c2)n(-c2ccc(OCCO)cc2)n1 [Example 125],80
5,CC(C)(C)c1cc(NC(=O)NCc2ccccc2Sc2ccc3nnc(-c4cccc(O)c4Cl)n3c2)n(-c2ccc(F)c(F)c2)n1 [Example 128],3.7
6,CCc1ccccc1-c1nnc2ccc(Sc3ccccc3CNC(=O)Nc3cc(C(C)(C)SC)nn3-c3ccc(O)cc3)cn12 [Example 132],4.5
7,CSC(C)(C)c1cc(NC(=O)NCc2ccccc2Sc2ccc3nnc(C(C)C)n3c2)n(-c2cc(C)cc(C)c2)n1 [Example 136],1
8,CC(C)c1ccccc1-c1nnc2ccc(Sc3ccccc3CNC(=O)Nc3cc(C(C)(C)C)nn3-c3ccc(OCCO)cc3)cn12 [Example 139],3.2
9,COc1ccccc1-c1nnc2ccc(Sc3ccccc3CNC(=O)Nc3cc(C(C)(C)SC)nn3-c3ccc(O)cc3)cn12 [Example 140],1.8
10,CC(C)(C)c1cc(NC(=O)NCc2ccccc2Sc2ccc3nnc(-c4ccccc4F)n3c2)n(-c2ccc(OCCO)cc2)n1 [Example 141],1.4
11,CSC(C)(C)c1cc(NC(=O)NCc2ccccc2Sc2ccc3nnc(-c4ccccc4C(C)C)n3c2)n(-c2ccc(O)cc2)n1 [Example 142],2.2
12,COc1ccccc1-c1nnc2ccc(Sc3ccccc3CNC(=O)Nc3cc(C(C)(C)C)nn3-c3ccc(O)cc3)cn12 [Example 143],1.2
13,CC(C)c1ccccc1-c1nnc2ccc(Sc3ccccc3CNC(=O)Nc3cc(C(C)(C)C)nn3-c3ccc(O)cc3)cn12 [Example 144],1.2
14,COc1ccccc1-c1nnc2ccc(Sc3ccccc3CNC(=O)Nc3cc(C(C)(C)C)nn3-c3cccc(O)c3)cn12 [Example 145],0.9
15,CSC(C)(C)c1cc(NC(=O)NCc2ccccc2Sc2ccc3nnc(-c4ccc(C)cc4O)n3c2)n(-c2cccc(C)c2)n1 [Example 151],1.4
16,CSC(C)(C)c1cc(NC(=O)NCc2ccccc2Sc2ccc3nnc(-c4cccc(Cl)c4O)n3c2)n(-c2cccc(C)c2)n1 [Example 152],4.9
17,CSC(C)(C)c1cc(NC(=O)NCc2ccccc2Sc2ccc3nnc(-c4cccc(Cl)c4O)n3c2)n(-c2ccc(C)cc2)n1 [Example 153],4.8
18,CC(C)(C)c1cc(NC(=O)NCc2ccccc2Sc2ccc3nnc(-c4ccccc4SCCO)n3c2)n(-c2cccc(O)c2)n1 [Example 179],1.5
19,CC(C)c1nnc2ccc(Sc3ccccc3CNC(=O)Nc3cc(C(C)(C)C)nn3-c3ccccn3)cn12 [Example 180],21
20,CC(C)c1nnc2ccc(Sc3ccccc3CNC(=O)Nc3cc(C(C)(C)C)nn3-c3cccc4cnccc34)cn12 [Example 181],2.7
21,CCC(C)(C)c1cc(NC(=O)NCc2ccccc2Sc2ccc3nnc(-c4ccccc4O)n3c2)n(-c2cccnc2)n1 [Example 182],0.7

# Same assay, conditions: PBMC; LPS-stimulated human peripheral blood mononuclear cells, 18 hours incubation, TNFα in supernatant by ELISA; read-out: TNF IC50
row,SMILES,IC50 [nM]
1,"CSC(C)(C)c1cc(NC(=O)NCc2ccccc2Sc2ccc3nnc(-c4ccccc4O)n3c2)n(-c2ccc(F)cc2)n1 [Example 94, N-{1-(4-Fluorophenyl)-3-[1-methyl-1-(methylthio)ethyl]-1H-pyrazol-5-yl}-N′-(2-{[3-(2-hydroxyphenyl)[1,2,4]triazolo[4,3-a]pyridin-6-yl]thio}benzyl)urea]",0.9
2,"CSC(C)(C)c1cc(NC(=O)NCc2ccccc2Sc2ccc3nnc(-c4ccccc4O)n3c2)n(-c2ccc(F)c(F)c2)n1 [Example 95, N-{1-(3,4-Difluorophenyl)-3-[1-methyl-1-(methylthio)ethyl]-1H-pyrazol-5-yl}-N′-(2-{[3-(2-hydroxyphenyl)[1,2,4]triazolo[4,3-a]pyridin-6-yl]thio}benzyl)urea]",0.6
3,"COc1ccc(-n2nc(C(C)(C)C)cc2NC(=O)NCc2ccccc2Sc2ccc3nnc(-c4ccccc4O)n3c2)cc1 [Example 97, N-[3-tert-Butyl-1-(4-methoxyphenyl)-1H-pyrazol-5-yl]-N′-(2-{[3-(2-hydroxyphenyl)[1,2,4]triazolo[4,3-a]pyridin-6-yl]thio}benzyl)urea]",0.6
4,"COc1cccc(-n2nc(C(C)(C)C)cc2NC(=O)NCc2ccccc2Sc2ccc3nnc(-c4ccccc4O)n3c2)c1 [Example 98, N-[3-tert-Butyl-1-(3-methoxyphenyl)-1H-pyrazol-5-yl]-N′-(2-{[3-(2-hydroxyphenyl)[1,2,4]triazolo[4,3-a]pyridin-6-yl]thio}benzyl)urea]",0.4
5,CCC(C)(C)c1cc(NC(=O)NCc2ccccc2Sc2ccc3nnc(-c4ccccc4O)n3c2)n(-c2cccc(OCCO)c2)n1 [Example 100],1.1
6,"CCc1ccccc1-c1nnc2ccc(Sc3ccccc3CNC(=O)Nc3cc(C(C)(C)SC)nn3-c3cccc(OCCO)c3)cn12 [Example 102, N-(2-{[3-(2-Ethylphenyl)[1,2,4]triazolo[4,3-a]pyridin-6-yl]thio}benzyl)-N′-{1-[3-(2-hydroxyethoxy)phenyl]-3-[1-methyl-1-(methylthio)ethyl]-1H-pyrazol-5-yl}urea]",1.7
7,"CCc1ccccc1-c1nnc2ccc(Sc3ccccc3CNC(=O)Nc3cc(C(C)(C)C)nn3-c3cccc(OCCO)c3)cn12 [Example 104, N-{3-tert-Butyl-1-[3-(2-hydroxyethoxy)phenyl]-1H-pyrazol-5-yl}-N′-(2-{[3-(2-ethylphenyl)[1,2,4]triazolo[4,3-a]pyridin-6-yl]thio}benzyl)urea]",1
8,"Cc1ccccc1-c1nnc2ccc(Sc3ccccc3CNC(=O)Nc3cc(C(C)(C)C)nn3-c3cccc(OCCO)c3)cn12 [Example 105, N-{3-tert-Butyl-1-[3-(2-hydroxyethoxy)phenyl]-1H-pyrazol-5-yl}-N′-(2-{[3-(2-methylphenyl)[1,2,4]triazolo[4,3-a]pyridin-6-yl]thio}benzyl)urea]",0.6
9,"CSC(C)(C)c1cc(NC(=O)NCc2ccccc2Sc2ccc3nnc(-c4ccccc4F)n3c2)n(-c2ccc(O)cc2)n1 [Example 109, N-(2-{[3-(2-Fluorophenyl)[1,2,4]triazolo[4,3-a]pyridin-6-yl]thio}benzyl)-N′-{1-(4-hydroxyphenyl)-3-[1-methyl-1-(methylthio)ethyl]-1H-pyrazol-5-yl}urea]",1.2
10,"CSc1ccc(-c2nnc3ccc(Sc4ccccc4CNC(=O)Nc4cc(C(C)(C)C)nn4-c4cccc(O)c4)cn23)cc1 [Example 114, N-[3-tert-Butyl-1-(3-hydroxyphenyl)-1H-pyrazol-5-yl]-N′-[2-({3-[4-(methylthio)phenyl][1,2,4]triazolo[4,3-a]pyridin-6-yl}thio)benzyl]urea]",3.6
